The results in this text go back to patent publication US20160009693A1, “HERBICIDAL COMPOUNDS” (SYNGENTA LIMITED, priority 2013, published 2016).

Holding throughout (assay type): in vivo
Common to all, as to details: applied at 1000 g/h, evaluated after 13 days

Assay [1] deals with Amaranthus retoflexus (AMARE). Briefly: Herbicidal glasshouse test, pre-emergence, AMARE. A digest of the protocol: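 Amaranthus retoflexus seeds were sown in pots of standard soil and kept one day in a glasshouse at 24/16° C. (day/night), 14 hours light and 65% humidity. They were then sprayed pre-emergence with the active ingredient in acetone/water (50:50) containing 0.5% Tween 20. Plants grew under the same conditions, watered twice daily, and percentage damage was scored after 13 days.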

Assay [2] concerns Amaranthus retoflexus (AMARE). Briefly: Herbicidal glasshouse test, post-emergence, AMARE. In outline: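 Amaranthus retoflexus (AMARE) seeds were sown in pots of standard soil and grown in a glasshouse at 24/16° C. day/night, 14 hours light and 65% humidity for 8 days. The plants were then sprayed post-emergence with an aqueous solution of the active ingredient in acetone/water (50:50) with 0.5% Tween 20. Damage was scored after 13 days.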

The test system of assay [3] is Echinochloa crus-galli (ECHCG). The assay is described as follows: Herbicidal glasshouse test, pre-emergence, ECHCG. A digest of the protocol: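 Echinochloa crus-galli seeds were sown in standard soil in pots and grown for one day in a glasshouse at 24/16° C. day/night, 14 hours light and 65% humidity. Pre-emergence spraying used an aqueous solution of the active ingredient in acetone/water (50:50) with 0.5% Tween 20. Damage was scored after 13 days on a five point scale.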

Assay [4] has as its system Alopecurus myosuroides (ALOMY). Briefly: Herbicidal glasshouse test, post-emergence, ALOMY.
For assay [5], the system named is Solanum nigrum (SOLNI). The assay is described as follows: Herbicidal glasshouse test, post-emergence, SOLNI.
For assay [6], the system named is Setaria faberi (SETFA). The assay is described as follows: Herbicidal glasshouse test, pre-emergence, SETFA.
The test system of assay [7] is Ipomoea hederacea (IPOHE). Briefly: Herbicidal glasshouse test, post-emergence, IPOHE.
The test system of assay [8] is Solanum nigrum (SOLNI). Briefly: Herbicidal glasshouse test, pre-emergence, SOLNI. In outline: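 Seeds of Solanum nigrum were sown in pots of standard soil and kept one day in a glasshouse at 24/16° C. day/night, 14 hours light and 65% humidity. For the pre-emergence treatment they were then sprayed with an aqueous solution of the active ingredient formulated in acetone/water (50:50) containing 0.5% Tween 20. Plant damage was rated after 13 days.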

Assay [9] deals with Ipomoea hederacea (IPOHE). The assay is described as follows: Herbicidal glasshouse test, pre-emergence, IPOHE.
Assay [10] has as its system Alopecurus myosuroides (ALOMY). Briefly: Herbicidal glasshouse test, pre-emergence, ALOMY.
Assay [11] relates to Echinochloa crus-galli (ECHCG). The assay is described as follows: Herbicidal glasshouse test, post-emergence, ECHCG. In outline: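 Echinochloa crus-galli (ECHCG) seeds were sown in standard soil in pots and grown for 8 days in a glasshouse at 24/16° C. day/night, 14 hours light and 65% humidity. The young plants were then sprayed post-emergence with the active ingredient in acetone / water (50:50) containing 0.5% Tween 20. Damage was scored after 13 days.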

In assay [12] the test system is Setaria faberi (SETFA). Briefly: Herbicidal glasshouse test, post-emergence, SETFA. In outline:
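Setaria faberi seeds were sown in standard soil in pots and grown for 8 days in a glasshouse at 24/16° C. day/night, 14 hours light and 65% humidity. The seedlings were then sprayed post-emergence with the active ingredient in acetone/water (50:50) containing 0.5% Tween 20. Afterwards they were kept under the same conditions, watered twice daily, and scored for percentage damage on a five point scale.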

Regarding `Cn1nnnc1NC(=O)c1nn(C)c(=O)n(Cc2ccc(SC(F)(F)F)cc2)c1=O` [Compound 1.080], in assay [1], the “PRE Application AMARE, percentage damage (five point scale)” value (“PRE Application AMARE, percentage damage” for short) is given as 5 (5=80-100%). Further, the “POST Application AMARE, percentage damage (five point scale)” value in assay [2] is recorded as 5 (5=80-100%). In addition, the “PRE Application ECHCG, percentage damage (five point scale)” value (shortened to “PRE Application ECHCG, percentage damage”) in assay [3] was 5 (5=80-100%). Moreover, the “POST Application ALOMY, percentage damage (five point scale)” value in assay [4] is 5 (5=80-100%). The “POST Application SOLNI, percentage damage (five point scale)” value in the assay on Solanum nigrum (SOLNI) [5] is on record as 5 (5=80-100%). Besides, the “PRE Application SETFA, percentage damage (five point scale)” value (“PRE Application SETFA, percentage damage” below) in the assay on Setaria faberi (SETFA) [6] was 5 (5=80-100%). Also, the “POST Application IPOHE, percentage damage (five point scale)” value in assay [7] is recorded as 5 (5=80-100%). Moreover, the “PRE Application SOLNI, percentage damage (five point scale)” value (from here on “PRE Application SOLNI, percentage damage”) in the assay with Solanum nigrum (SOLNI) [8] is 5 (5=80-100%). In addition, the “PRE Application IPOHE, percentage damage (five point scale)” value (shortened to “PRE Application IPOHE, percentage damage”) in assay [9] is 5 (5=80-100%). Besides, the “PRE Application ALOMY, percentage damage (five point scale)” value (“PRE Application ALOMY, percentage damage” below) in assay [10] is reported as 5 (5=80-100%). Besides, the “POST Application ECHCG, percentage damage (five point scale)” value in assay [11] was 4 (4=60-79%). Also, the “POST Application SETFA, percentage damage (five point scale)” value in the assay with Setaria faberi (SETFA) [12] is on record as 5 (5=80-100%).
For the compound `Cn1nnnc1NC(=O)c1nn(C)c(=O)n(-c2cccc(Br)c2)c1=O` [Compound 1.033], the “PRE Application AMARE, percentage damage” value in assay [1] is 5 (5=80-100%). The “POST Application AMARE, percentage damage (five point scale)” value in assay [2] is on record as 5 (5=80-100%). Also, the “PRE Application ECHCG, percentage damage” value in assay [3] was 5 (5=80-100%). Moreover, the “POST Application ALOMY, percentage damage (five point scale)” value in [4] is 5 (5=80-100%). Further, the “POST Application SOLNI, percentage damage (five point scale)” value in the assay with Solanum nigrum (SOLNI) [5] is reported as 5 (5=80-100%). Also, the “PRE Application SETFA, percentage damage” value in the assay with Setaria faberi (SETFA) [6] is reported as 5 (5=80-100%). Further, the “POST Application IPOHE, percentage damage (five point scale)” value in assay [7] is given as 5 (5=80-100%). The “PRE Application SOLNI, percentage damage” value in the assay on Solanum nigrum (SOLNI) [8] was 5 (5=80-100%). The “PRE Application IPOHE, percentage damage” value in [9] is listed as 5 (5=80-100%). The “PRE Application ALOMY, percentage damage” value in [10] was 5 (5=80-100%). Further, in assay [11], the “POST Application ECHCG, percentage damage (five point scale)” value is 5 (5=80-100%). The “POST Application SETFA, percentage damage (five point scale)” value with Setaria faberi (SETFA) [12] is recorded as 5 (5=80-100%).
Consider `Cn1nnnc1NC(=O)c1nn(C)c(=O)n(-c2cc(Cl)cc(Cl)c2)c1=O` [Compound 1.035], for which the “PRE Application AMARE, percentage damage” value in assay [1] was 5 (5=80-100%). Moreover, the “POST Application AMARE, percentage damage (five point scale)” value in [2] was 5 (5=80-100%). The “PRE Application ECHCG, percentage damage” value in assay [3] is given as 5 (5=80-100%). In [4], the “POST Application ALOMY, percentage damage (five point scale)” value is recorded as 5 (5=80-100%). Further, in the assay with Solanum nigrum (SOLNI) [5], the “POST Application SOLNI, percentage damage (five point scale)” value is on record as 5 (5=80-100%). For the same compound, the “PRE Application SETFA, percentage damage” value with Setaria faberi (SETFA) [6] was 4 (4=60-79%). The “POST Application IPOHE, percentage damage (five point scale)” value in assay [7] was 5 (5=80-100%). For the same compound, the “PRE Application SOLNI, percentage damage” value with Solanum nigrum (SOLNI) [8] is on record as 5 (5=80-100%). For the same compound, the “PRE Application IPOHE, percentage damage” value in assay [9] is listed as 5 (5=80-100%). Further, the “PRE Application ALOMY, percentage damage” value in assay [10] was 5 (5=80-100%). Besides, the “POST Application ECHCG, percentage damage (five point scale)” value in [11] is given as 5 (5=80-100%). The “POST Application SETFA, percentage damage (five point scale)” value in the assay with Setaria faberi (SETFA) [12] is 5 (5=80-100%).
Turning to `CCCCn1c(=O)c(C(=O)Nc2ncnn2C)nn(C)c1=O` [Compound 5.003], in assay [1], the “PRE Application AMARE, percentage damage” value is 5 (5=80-100%). Moreover, the “POST Application AMARE, percentage damage (five point scale)” value in assay [2] is listed as 5 (5=80-100%). In addition, the “PRE Application ECHCG, percentage damage” value in [3] is 1 (1=0-19%). The “POST Application ALOMY, percentage damage (five point scale)” value in assay [4] is 3 (3=40-59%). The “POST Application SOLNI, percentage damage (five point scale)” value with Solanum nigrum (SOLNI) [5] is 5 (5=80-100%). In addition, the “PRE Application SETFA, percentage damage” value with Setaria faberi (SETFA) [6] is on record as 4 (4=60-79%). Besides, the “POST Application IPOHE, percentage damage (five point scale)” value in [7] was 4 (4=60-79%). In the assay with Solanum nigrum (SOLNI) [8], the “PRE Application SOLNI, percentage damage” value is on record as 5 (5=80-100%). Also, in [9], the “PRE Application IPOHE, percentage damage” value was 4 (4=60-79%). The “PRE Application ALOMY, percentage damage” value in assay [10] is 1 (1=0-19%). Besides, the “POST Application ECHCG, percentage damage (five point scale)” value in assay [11] is on record as 4 (4=60-79%). Further, in the assay with Setaria faberi (SETFA) [12], the “POST Application SETFA, percentage damage (five point scale)” value is recorded as 4 (4=60-79%).
